Assay results as given in US20250154250A1, “CEACAM5 ADC-ANTI-PD1/PD-L1 COMBINATION THERAPY” (SANOFI, priority 2021, published 2025).
Like-named read-outs stand apart in the source and are kept apart here.

How the values were obtained:
[1] = test system: subcutaneous colon MC38 syngeneic tumor; test: subcutaneous colon MC38 syngeneic tumor model; details: for Drug death (day) / Mean body weight change in % at nadir (day) / Regression CR / Regression PR: n=6; for tolerability of treatments: doses lower than maximal tolerated dose (MTD)
Description: […] Control groups were left untreated. The doses of the compounds used are given in mg/kg.
For the evaluation of anti-tumor activity, animals were weighed, and tumors were measured by caliper 2 times weekly. A dosage producing a 20% weight loss at nadir (mean of group) or 10% or more drug deaths, was considered an excessively toxic dosage. Animal body weights included the tumor weights. Tumor volumes were calculated using the formula mass (mm^3)=[length (mm)×width (mm)×width (mm)]/2. The primary efficacy end points are ΔT/ΔC, percent median regression, partial and complete regressions (PR and CR).
Changes in tumor volume for each treated (T) and control (C) are calculated for each tumor by subtracting the tumor volume on the day of first treatment (staging day) from the tumor volume on the specified observation day. The median ΔT is calculated for the treated group and the median ΔC is calculated for the control group. Then the ratio ΔT/ΔC is calculated and expressed as a percentage: ΔT/ΔC=(delta T/delta C)×100.
The dose is considered as therapeutically active when ΔT/ΔC is lower than 40% and very active when ΔT/ΔC is lower than 10%.
% tumor regression is defined as the % of tumor volume decrease in the treated group at a specified observation day compared to its volume on the first day of first treatment.
At a specific time point and for each animal, % regression is calculated. The median % regression is then calculated for the group:
Partial regression (PR): Regressions are defined as partial if the tumor volume decreases to 50% of the tumor volume at the start of treatment.
Complete regression (CR): Complete regression is achieved when tumor volume=0 mm^3 (CR is considered when tumor volume cannot be recorded).
Control groups were left untreated. The doses of the compounds used are given in mg/kg.
See above (Ex 2) for the conditions of anti-tumor activity and toxicity evaluation.

CEACAM6 = CEACAM6 (Homo sapiens, UniProt P40199)
[2] = test system: human primary colon and stomach tumors; details: mice bearing human primary colon and stomach tumors; see WO 2014/079886; cited from earlier work
CEACAM7 = CEACAM7 (Homo sapiens, UniProt Q14002)
CEACAM1 = CEACAM1 (Homo sapiens, UniProt P13688)
[3] = test system: NSQ NSCLC with tumor CEACAM5 expression
CEACAM8 = CEACAM8 (Homo sapiens, UniProt P31997)
[4] = antibody as single agent 10 mg/kg IV (total 40)
[5] = huMAb2-3-SPDB-DM4 15 mg/kg IV day 10, alone or + antibody 10 mg/kg IV
[6] = huMAb2-3-SPDB-DM4 25 mg/kg IV day 10, alone or + antibody 10 mg/kg IV

Chain of CEACAM6 (P40199 35-320): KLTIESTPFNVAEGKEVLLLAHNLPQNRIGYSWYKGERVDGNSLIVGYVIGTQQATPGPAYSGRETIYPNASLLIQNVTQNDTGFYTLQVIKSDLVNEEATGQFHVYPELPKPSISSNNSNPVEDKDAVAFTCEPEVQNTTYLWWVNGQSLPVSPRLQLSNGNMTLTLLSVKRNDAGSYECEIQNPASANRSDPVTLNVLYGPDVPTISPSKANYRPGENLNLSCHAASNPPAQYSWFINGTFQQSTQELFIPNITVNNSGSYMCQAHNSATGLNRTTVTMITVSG
Chain of CEACAM8 (P31997 35-320): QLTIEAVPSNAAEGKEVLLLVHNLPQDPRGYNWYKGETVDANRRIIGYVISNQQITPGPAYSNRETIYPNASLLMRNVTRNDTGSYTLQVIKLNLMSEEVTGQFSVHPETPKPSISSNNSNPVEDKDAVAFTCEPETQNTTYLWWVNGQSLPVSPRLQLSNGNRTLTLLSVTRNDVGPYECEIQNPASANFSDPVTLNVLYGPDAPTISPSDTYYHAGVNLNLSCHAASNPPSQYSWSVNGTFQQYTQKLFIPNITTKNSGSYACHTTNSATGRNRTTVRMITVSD
Chain of CEACAM7 (Q14002 36-242): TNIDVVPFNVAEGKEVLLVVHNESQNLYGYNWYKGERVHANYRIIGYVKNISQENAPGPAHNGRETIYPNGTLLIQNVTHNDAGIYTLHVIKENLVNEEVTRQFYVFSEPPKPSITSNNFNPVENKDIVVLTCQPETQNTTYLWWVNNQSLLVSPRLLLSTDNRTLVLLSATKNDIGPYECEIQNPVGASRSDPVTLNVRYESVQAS
Chain of CEACAM1 (P13688 35-526): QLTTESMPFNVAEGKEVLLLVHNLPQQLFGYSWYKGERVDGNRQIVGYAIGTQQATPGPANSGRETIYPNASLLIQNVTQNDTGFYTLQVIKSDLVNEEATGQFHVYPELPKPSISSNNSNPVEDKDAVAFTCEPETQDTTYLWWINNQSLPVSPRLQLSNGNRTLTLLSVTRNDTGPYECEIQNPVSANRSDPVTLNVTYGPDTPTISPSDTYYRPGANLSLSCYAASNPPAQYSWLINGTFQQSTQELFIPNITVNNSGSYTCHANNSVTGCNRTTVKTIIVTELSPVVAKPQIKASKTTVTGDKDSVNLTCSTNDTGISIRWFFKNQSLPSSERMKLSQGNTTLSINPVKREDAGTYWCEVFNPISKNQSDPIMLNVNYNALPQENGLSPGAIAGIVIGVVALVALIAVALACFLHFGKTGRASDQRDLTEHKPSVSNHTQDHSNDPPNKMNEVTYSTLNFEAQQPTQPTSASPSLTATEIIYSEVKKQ

Question: With “Atezolizumab [anti-mu/huPD-L1 (Atezolizumab), reference compound]” as the substance, how does the Biological comments [1, 4] read?
Answer: Marginally

Question: What about the Biological comments ([1]; antibody as single agent 10 mg/kg IV (total 40), listed as anti-mu/PD-L1 mAb) of the same substance?
Answer: marginally active

Question: What about the “Drug death (day)” value [1, 4] of the same substance?
Answer: 0/6

Question: And the “Mean body weight change in % at nadir (day)” value (shortened to “Mean body weight change in %”) [1, 4]?
Answer: +2.08%

Question: And the “Regression CR” value [1, 4]?
Answer: 1/6

Question: And the “Regression PR” value [1, 4]?
Answer: 1/6

Question: What about the tolerability of treatments [1] of the same substance?
Answer: well tolerated and did not induce toxicity

Question: With tusamitamab ravtansine as the substance, how does the “recognition of CEACAM6” value (CEACAM6) read?
Answer: does not recognize

Question: And the “tumor growth in vivo” value [2]?
Answer: markedly inhibit tumor growth

Question: And the “recognition of CEACAM7” value (CEACAM7)?
Answer: does not recognize

Question: What about the “recognition of CEACAM1” value (CEACAM1) of the same substance?
Answer: does not recognize

Question: And the tolerability of treatments [1]?
Answer: well tolerated and did not induce toxicity

Question: What about the Biological comments [1, 5] of the same substance?
Answer: Inactive

Question: And the “Median ΔT/ΔC in % (D 22)” value [1, 5]?
Answer: 46%

Question: What about the “Drug death (day)” value [1, 5] of the same substance?
Answer: 0/6

Question: And the “Mean body weight change in %” value [1, 5]?
Answer: +3.95%

Question: What about the “Regression CR” value [1, 5] of the same substance?
Answer: 0/6

Question: And the “Regression PR” value [1, 5]?
Answer: 0/6

Question: And the Biological comments [1, 6]?
Answer: highly active

Question: And the “Median ΔT/ΔC in % (D 22)” value [1, 6]?
Answer: <0%

Question: And the “Drug death (day)” value [1, 6]?
Answer: 0/6

Question: And the “Mean body weight change in %” value [1, 6]?
Answer: +1.30%

Question: What about the “Regression CR” value [1, 6] of the same substance?
Answer: 1/6

Question: What about the “Regression PR” value [1, 6] of the same substance?
Answer: 4/6

Question: What about the “overall response rate per RECIST 1.1” value ([3]; 28 heavily pre-treated patients, tumor CEACAM5 expression ≥1% and <5 0%) of the same substance?
Answer: 7.1%

Question: And the “overall response rate per RECIST 1.1” value ([3]; 64 heavily pre-treated patients, tumor CEACAM5 expression ≥50%)?
Answer: 20.3%

Question: What about the “recognition of CEACAM8” value (CEACAM8) of the same substance?
Answer: does not recognize
